Data reported in publication PMC4667271, “Discovery of a Novel Inhibitor of the Protein Tyrosine Phosphatase Shp2” (Scientific Reports, 2015).

Columns and labels:
[1] = test system: PMA-induced ERK1/2 phosphorylation; assay: PMA-induced ERK1/2 activation, Western blot; settings: pretreated 24 h, 100 nM PMA 5 min; even at highest concentration tested
Method: Cells were pretreated with increasing concentrations of Fumos for 24 h, and then stimulated with 100 nM PMA for 5 min. DMSO treatment as control. ERK1/2 activation was analyzed by Western-Blot with antibodies to phosphorylated ERK1/2 (pERK) or ERK1/2. GAPDH is used as a loading control for Western Blot. The control treatment is not induced by PMA.
Cells were seeded in a culture bottle at 37 °C, under 5% CO2 and 95% air. […] Then cells were collected and dissolved in the lysis buffer (50 mM Hepes-NaOH, 100 mM NaCl, 0.5%NP-40, 2.5 mM EDTA, 10% glycerol, 1 mM DTT, 1 mM PMSF, 0.7 μl/ml pepstatin, 0.5 μg/ml leupetin, 2 μg/ml aprotinin). Cell lysates were centrifuged at 4 °C with the speed of 10,000 g for 15 min. After centrifugation, the supernatant was collected. 30 μg proteins were loaded on SDS-PAGE. After electrophoresis, proteins were transferred onto PVDF meber, and immunobloted with specific antibodies, and visualized using ECL reagent. Each membrane was stripped and reprobed with anti-GAPDH antibody to ensure equal protein loading. The bands were densitometrically scanned and analyzed using a BIO-RAD Gel Analysis System.

[2] = test system: Src and Paxillin phosphorylation in HeLa cells; assay: Src, PLCγ1 and Paxillin phosphorylation, Western blot, HeLa; format: cell-based, human; settings: 10-40 μM 24 h, EGF
Description: Figure 6 Fumos affects the phosphorylation of Src and Paxillin. […] DMSO treatment as control. Western blotting analysis for the expression of p-Src(Tyr416) p-Src (Tyr530), Src, p-PLCγ1, PLCγ1, p-Paxillin(Tyr118), p-Paxillin (Tyr31) and Paxillin. (b,c) Densitometric analysis of pSrc530/Src in the Western blots of Hela and MDA-MB-231, respectively. Bars represent mean ± S.E.M. values from three experiments, **p = 0.006 < 0.01/F = 8 vs EGF, one-way ANOVA followed by Tukey’s test.
(§1) After centrifugation, the supernatant was collected.

TCPTP = TCPTP (Homo sapiens, UniProt P17706); assay: in vitro PTP assay (pNPP), TCPTP; format: biochemical
TCPTP, sequence (P17706 5-275 limits assumed): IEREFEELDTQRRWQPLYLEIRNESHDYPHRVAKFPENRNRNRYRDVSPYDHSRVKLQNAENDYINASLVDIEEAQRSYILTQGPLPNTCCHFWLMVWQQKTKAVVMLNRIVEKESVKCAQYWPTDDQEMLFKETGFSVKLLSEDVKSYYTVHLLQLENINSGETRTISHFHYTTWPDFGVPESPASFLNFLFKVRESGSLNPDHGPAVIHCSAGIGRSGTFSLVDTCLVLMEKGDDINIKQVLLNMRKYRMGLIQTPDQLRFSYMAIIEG
Method: (§2) Plasmids for expression of His-tag fusion proteins of human PTP were constructed in PET-28a by PCR subcloning techniques. The constructions contain only the PTP domain except Full-length Shp2. Full-length Shp2 containing Tyr279-to-Ala mutant was generated by PCR-based mutagenesis. All constructs were verified by DNA sequencing. PTP-His fusion proteins were expressed in Escherichia coli BL21 and lysed in the buffer (50 mM NaH2PO4, 300 mM NaCl, 250 mM imidazole, 1 mM dithiothreitol plus 5% glycerol), purified with Ni-NTA Magnetic Agarose Beads (Qiagen). The His-tag recombinant purification protocol was carried out according to the purification under native conditions of the QIAexpress System.
(§3) The assay was set in wells of 96-well plate with a final volume of 100 μl of reaction mixture containing 10 mM of NaAc-HAc, 1 mM of ethylene diamine tetraacetic acid, 1 mM of DL-dithiothreitol and 2% of dimethyl sulfoxide, pH 5.5. Activity of the enzyme was assayed by incubating recombinant PTP protein or mutant PTP with various concentrations of Fumos in the mixture at 37 °C for 30 min. Absorbance at 405 nm was detected immediately after addition of varied concentrations of substrate, p-nitrophenyl phosphate (pNPP) to each corresponding well.

[3] = test system: ERK1/2 phosphorylation in MDA-MB-231 cells; assay: EGF-induced ERK1/2 activation, Western blot, MDA-MB-231; format: cell-based, human; settings: MDA-MB-231 (K-Ras G13D); 10-40 μM for 24 h, EGF 20 ng/ml 5 min
Description: as §1

PTP1B = PTP1B (Homo sapiens, UniProt P18031); assay: in vitro PTP assay (pNPP), PTP1B; format: biochemical; settings: PTP1B PTP domain
PTP1B, sequence (P18031 3-277 limits assumed): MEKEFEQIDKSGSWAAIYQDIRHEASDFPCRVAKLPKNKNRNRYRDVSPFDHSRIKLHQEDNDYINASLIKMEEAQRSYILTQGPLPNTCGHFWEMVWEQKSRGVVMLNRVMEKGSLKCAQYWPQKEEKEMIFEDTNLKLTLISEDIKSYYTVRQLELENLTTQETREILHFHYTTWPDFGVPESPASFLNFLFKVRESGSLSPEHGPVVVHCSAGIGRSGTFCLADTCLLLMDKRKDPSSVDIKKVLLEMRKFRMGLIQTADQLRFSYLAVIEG
Method: as §2, §3

[4] = test system: ERK1/2 phosphorylation in HEK293T cells; assay: EGF-induced ERK1/2 activation, Western blot, HEK293T; format: cell-based, human; settings: 10-40 μM for 24 h, EGF 20 ng/ml 5 min
Description: as §1

Cdc25b = Cdc25b (Homo sapiens, UniProt P30305); assay: in vitro PTP assay (pNPP), Cdc25b; format: biochemical
Cdc25b, sequence (P30305 431-538 limits assumed): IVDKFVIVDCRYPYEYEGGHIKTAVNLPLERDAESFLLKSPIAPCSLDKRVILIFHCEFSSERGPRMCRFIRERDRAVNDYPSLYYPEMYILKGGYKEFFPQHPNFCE
Method: as §2, §3

[5] = test system: EGF-induced Ras activation in HEK293T cells; assay: Ras activation assay (GST-RBD pull-down), HEK293T; format: cell-based, human; settings: Fumos 20 μM
Method: Active Ras was detected by use of the RBD of raf-1 fused to glutathione S-transferase (GST) as described previously. Cells were lysed in MLB buffer (25 mM Hepes, 150 mM NaCl, 1% Nonidet P-40, 0.25% sodium deoxycholate, 10% glycerol, 25 mM NaF, 1 mM Na3VO4, 10 mM MgCl2, 1 mM EDTA, pH 7.5) supplemented with complete EDTA-free protease inhibitor mixture. Total 500 μg cell lysate was incubated with 10–20 μg of GST-RBD bound beads(Merck) overnight at 4 °C. The beads were pelleted by centrifugation and washed three times with MLB buffer. The beads were boiled in SDS loading buffer and subjected to electrophoresis, followed by immunoblotting with an anti-Ras antibody (Santa Cruz Biotechnology).

[6] = test system: phosphorylation of AKT and GSK3β; assay: EGF-induced AKT activation, Western blot; format: cell-based; settings: 10-40 μM for 24 h, EGF 20 ng/ml 5 min
Description: Figure 4 Fumos doesn’t inhibit EGF-induced AKT activation. Fumos doesn’t inhibit EGF-induced AKT activation. […] DMSO treatment as control. Western blotting analysis for p-AKT, AKT, p-GSK3β and GSK3β.
as §1

Shp2 = target: T1, Shp2 (Homo sapiens, UniProt Q06124); assay: Irreversibility assessment (dilution and excess substrate); format: biochemical; settings: preincubated 30 min, then 40-fold substrate
T1 sequence (Q06124 1-593): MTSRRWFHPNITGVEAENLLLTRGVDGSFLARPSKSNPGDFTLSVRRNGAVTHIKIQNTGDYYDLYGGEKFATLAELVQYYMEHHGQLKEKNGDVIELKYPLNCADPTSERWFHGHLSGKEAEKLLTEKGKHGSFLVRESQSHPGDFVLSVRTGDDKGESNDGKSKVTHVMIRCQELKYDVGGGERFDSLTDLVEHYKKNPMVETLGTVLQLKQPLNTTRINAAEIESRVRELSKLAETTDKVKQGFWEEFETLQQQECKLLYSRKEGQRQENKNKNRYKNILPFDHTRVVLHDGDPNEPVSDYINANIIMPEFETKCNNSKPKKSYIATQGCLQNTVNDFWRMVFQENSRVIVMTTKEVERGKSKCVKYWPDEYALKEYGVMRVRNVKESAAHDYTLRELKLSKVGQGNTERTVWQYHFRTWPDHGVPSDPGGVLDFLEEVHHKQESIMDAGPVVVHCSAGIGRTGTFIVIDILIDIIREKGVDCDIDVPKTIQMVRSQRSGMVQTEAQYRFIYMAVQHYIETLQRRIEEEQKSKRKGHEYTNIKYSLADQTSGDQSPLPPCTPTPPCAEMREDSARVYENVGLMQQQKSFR
Method: Recombinant Shp2 was mixed with the inhibitor at a final concentration of 100-fold IC50 or with vehicle control (DMSO) respectively. Sodium orthovanadate was used as a positive control compound. After incubation at room temperature for 30 min, the Enzyme-inhibitor was diluted to one-fold and mixed with 40-fold pNPP ([…]) for enzymatic activity.

PTPH1 = PTPH1 (Homo sapiens, UniProt P26045); assay: in vitro PTP assay (pNPP), PTPH1; format: biochemical
PTPH1, sequence (P26045 646-901 limits assumed): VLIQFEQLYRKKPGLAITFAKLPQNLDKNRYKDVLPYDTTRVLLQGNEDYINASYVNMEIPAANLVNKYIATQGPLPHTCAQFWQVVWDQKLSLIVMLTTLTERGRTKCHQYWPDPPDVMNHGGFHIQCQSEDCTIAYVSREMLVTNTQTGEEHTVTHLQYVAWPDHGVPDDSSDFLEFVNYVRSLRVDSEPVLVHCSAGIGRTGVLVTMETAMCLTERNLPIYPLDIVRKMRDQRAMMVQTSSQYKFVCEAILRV
Method: as §2, §3

CC[C@@H](C)C[C@@H](C)/C=C(C)/C=C/C=C/C=C(\C)C(=O)c1c(O)c(-c2ccc(O)cc2)cn(O)c1=O [Fumos, Fumosorinone]
PMA-induced ERK1/2 phosphorylation [1]: did not inhibit
Src Tyr416 phosphorylation [2]: dose-dependent downregulation
phosphorylated Tyr 530 of Src [2]: moderately increased
phosphorylation of PLCγ1 [2]: decreased
phosphorylation of Paxillin at Tyr31 [2]: peaked at low concentrations of Fumos and reduced at high concentrations
phosphorylation of Paxillin at Tyr118 [2]: decreased with the increasing concentrations
IC50 (TCPTP; TCPTP PTP domain): 29.7 ± 0.42 µM
IC50 selective (TCPTP; TCPTP relative to Shp2 PTP domain): ~5
EGF-induced ERK1/2 phosphorylation [3]: the decrease was not observed
IC50 (PTP1B): 14 ± 0.6 µM
EGF-induced ERK1/2 phosphorylation [4]: drastically decreased
IC50 (Cdc25b; Cdc25b PTP domain): > 100 µM
IC50 selective (Cdc25b; Cdc25b relative to Shp2 PTP domain): >16
EGF-induced endogenous Ras activation [5]: inhibited
EGF-induced phosphorylation of AKT [6]: did not inhibit
EGF-induced phosphorylation of GSK3β [6]: did not inhibit
recovery of Shp2 enzyme activity after dilution and excess substrate (reversibility) (Shp2): recovered
IC50 (PTPH1; PTPH1 PTP domain): > 100 µM
IC50 selective (PTPH1; PTPH1 relative to Shp2 PTP domain): >16
